Reference: patent US6159994A, “Histamine H3 receptor ligands” (James Black Foundation, priority 1997, dated 2000)

Legend:
[1] = target: T1, histamine H3 receptor (Cavia porcellus, UniProt Q9JI35); experiment: Guinea pig ileal longitudinal muscle, myenteric plexus functional assay (antagonism of R-(α)-methylhistamine inhibition of electrically-stimulated contraction); type: cell-based; details: guinea pig ileum; antagonist affinity from rightward shift of R-(α)-methylhistamine E/[A] curves (Schild); typical variance ±0.15 log units; read-out: pKB (functional assay) - ileum (converted)
T1 construct: the longitudinal muscle layer and adhering myenteric plexus was teased away; from tissue; host or cells: guinea pig ileum longitudinal muscle with adhering myenteric plexus (intact tissue strips)
T1 sequence (Q9JI35 whole entry): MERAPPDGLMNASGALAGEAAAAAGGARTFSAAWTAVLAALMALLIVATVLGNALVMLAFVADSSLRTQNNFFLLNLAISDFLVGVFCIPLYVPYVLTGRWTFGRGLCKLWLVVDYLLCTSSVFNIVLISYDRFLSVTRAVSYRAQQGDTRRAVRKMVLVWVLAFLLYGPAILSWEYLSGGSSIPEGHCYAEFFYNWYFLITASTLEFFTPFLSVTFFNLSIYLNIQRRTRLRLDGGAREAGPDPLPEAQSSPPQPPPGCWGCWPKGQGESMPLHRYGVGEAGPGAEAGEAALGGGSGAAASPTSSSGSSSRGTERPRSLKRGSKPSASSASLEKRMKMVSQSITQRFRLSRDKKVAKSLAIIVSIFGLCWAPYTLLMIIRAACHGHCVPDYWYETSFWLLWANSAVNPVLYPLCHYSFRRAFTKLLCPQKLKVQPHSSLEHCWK
Procedure: The biological activity of the compounds of the examples was measured using the ileal longitudinal muscle, myenteric plexus assay described by Paton and Aboo Zar (J. Physiol. 1968, 194, 13-33). Male Dunkin-Hartley guinea pigs (250-300 g) were employed. Briefly, a 50 cm portion of ileum proximal to the caecum was removed, after discarding the terminal 20 cm. Ileal segments (3 cm) were cleaned by passing Krebs-Henseleit buffer containing 3 μM mepyramine gently through the ileum using a Pasteur pipette (size: 13.8 cm length, 0.65 cm diameter). To avoid unnecessary damage to the tissue, Krebs-Henseleit buffer was passed through the ileal segment, while it was lying horizontally on a petri dish. Therefore, the ileum was not over-distended and the buffer flowed through with ease. Each segment was then passed over a Pasteur pipette and the longitudinal muscle layer and adhering myenteric plexus was teased away using moist cotton wool, by stroking tangentially away from the mesenteric attachment. The tissues were suspended in 20 ml organ baths containing Krebs-Henseleit buffer at 37±1° C. and gassed with […]. The tissues were ligated to two parallel stainless steel wires, situated between two platinum electrodes (0.76 cm length, 0.06 cm diameter). All measurements were recorded isometrically (Grass FTO3 transducer). Following an initial loading tension of 1 g, the tissues were stimulated with electrical pulses at a frequency of 0.1 lHz and a pulse duration of 0.5 msec, as described by Kosterlitz & Watt (Br. J. Pharmacol. 1968, 266-276). Initially, the tissues were stimulated at supramaximal (1.3 fold times maximal) voltage for a period of 30 min and then the tissues were washed and re-stimulated.A "sighter dose" of the selective histamine H3 -receptor agonist, R-(α)-methylhistamine (0.3 μM) (Arrang el al. Nature, 1987, 117-123), was administered. Upon generation of response, the "sighter dose" was removed from the tissues by "washout" (6 washes over 60 min) and during this period the electrical stimulation was switched off. The tissues were then re-stimulated and allowed to stabilise prior to the addition of drug treatments, which were allocated on a randomised block basis to the organ baths. Following the incubation period, a single cumulative E/[A] curve was obtained. The experimental E/[A] curve data was expressed as the percentage inhibition of the peak height of electrically-stimulated contraction. Antagonist affinity values were calculated from the degree of rightward shift of the R-(α)-methylhistamine E/[A] curves using Schild's methods (Arunlakshana & Schild Br. J. Pharmacol, 1959, 48-58). Typical variance in this assay is ±0.15 log units.

[2] = target: T2, Histamine H3 receptor (guinea pig cortex membranes) (Cavia porcellus, UniProt Q9JI35); experiment: Histamine H3 radioligand binding assay - guinea pig cortex; details: [3H]-R-α-methylhistamine 0.1 nM final, typical variance ±0.12 log units, read-out: pKI (binding assay) - cortex (converted)
T2 construct: The cortex was dissected, weighed and homogenised; from tissue; host or cells: guinea pig cerebral cortex membranes
T2 sequence (Q9JI35 whole entry): as above
Procedure: (§1) Data are analysed using GraphPad prism and the general equation for a competition curve with variable Hill slope (nH). [formula] where
(§2) X is the log concentration of competing compound,
(§3) Y is the binding obtained at each concentration of X,
(§4) pIC50 is the […] required to compete for half of the specific binding.
The IC50 is converted to the KI using the Cheng Prusoff equation,
IC50 is the concentration of competitor required to compete for half the specific binding,
L is the radioligand concentration used,
KD is the equilibrium dissociation constant for the radioligand determined by saturation experiments.
Histamine H3 radioligand binding assay--guinea pig cortex
Male Dunkin Hartley guinea pigs (200-300 g) were used. The whole brain was removed and immediately placed in ice-cold 20 mM Hepes-NaOH buffer (pH7.4 at 21±3° C.). The cortex was dissected, weighed and homogenised in ice-cold 20 mM Hepes-NaOH buffer (pH7.4 at 21±3° C.) (50 ml/guinea-pig cortex) using a polytron (Kinematica AG; PT-DA 3020/2TS, 3×3s). The homogenate was centrifuged at 100×g for 5 min and the supernatants pooled and stored at 4° C. The pellets were rehomogenised in fresh ice-cold buffer (80 ml) and recentrifuged (100×g for 5 min). The supernatants were pooled and pellets rehomogenised and recentrifuged (100×g for 5 min). All supernatants were pooled and centrifuged at 39,800×g for 12 min at 4° C. The final pellet was resuspended in 20 mM Hepes-NaOH buffer (pH7.4 at 21±3° C.) to a tissue concentration of 7.5 mg.ml^-1, using a teflon-in-glass homogeniser.
These were essentially identical to those used for the guinea pig ileum myenteric plexus assay described above, except that the final assay concentration of [^3 H]-R-α-methylhistamine was 0.1 nM. Typical variance in this assay is ±0.12 log units.

[3] = target: T3, Histamine H3 receptor (guinea pig ileum longitudinal muscle myenteric plexus membranes) (Cavia porcellus, UniProt Q9JI35); experiment: Histamine H3 radioligand binding assay - guinea pig ileum; details: [3H]-R-α-methylhistamine (50 μl; 3 nM), 165 min, 21±3° C., pH7.4, typical variance ±0.12 log units, read-out: pKI (binding assay) - ileum (converted)
T3 construct: Guinea pig ileum longitudinal muscle myenteric plexus membranes; from tissue; host or cells: guinea pig ileum longitudinal muscle myenteric plexus membranes
T3 sequence (Q9JI35 whole entry): as above
Procedure: Histamine H3 radioligand binding assay--guinea pig ileum
Male Dunkin Hartley guinea pigs (200-300 g) were used. The small intestine was rapidly removed (cut ^- 5 cm from caecum and 5 cm from stomach) and placed in ice-cold 20 mM Hepes-NaOH buffer (pH7.4 at 21±3° C.). The tissue was cut into ^- 10 cm segments, flushed through with ice-cold 20 mM Hepes-NaOH buffer and placed in a beaker containing fresh buffer at 4° C. 10 cm segments of ileum were threaded onto a glass pipette and the longitudinal muscle myenteric plexus was peeled away from the circular muscle using damp cotton-wool. Longitudinal muscle myenteric plexus was immediately placed in ice-cold Viaspan® solution (^~ 100 ml for tissue from 3 guinea pigs) and placed in the refrigerator for 24 hours.
Pre-soaked tissue was weighed and minced with scissors. The tissue was then homogenised in Viaspan® using a polytron (Kinematica AG; PT-DA 3020/2TS, 3×^- 1-2s). 50 ml of 500 mM Tris HCl (pH6.9 at 21±3° C.) was added to the tissue and the mixture centrifuged at 39,800×g for 12 min at 4° C. The supernatant was discarded and rehomogenised in 100 ml ice-cold 20 mM Hepes-NaOH buffer (pH7.4 at 21±3° C.) using a teflon-in-glass homogeniser (setting 10; 3×). The homogenate was recentrifuged at 39,800×g and the pellet resuspended in 20 mM Hepes-NaOH buffer (pH7.4 at 21±3° C.), to a tissue concentration of 50 mg.ml^-1, using a polytron (Brinkman, PT10, 3×^~1 s).
Guinea pig ileum longitudinal muscle myenteric plexus membranes (400 μl) were incubated for 165 min at 21±3° C. in a final volume of 500 μl with 20 mM Hepes-NaOH buffer containing [^3 H]-R-α-methylhistamine (50 μl; 3 nM) and competing compound. Total and non-specific binding of [^3 H]-R-α-methylhistamine were defined using 50 μl of buffer and 50 μl of 10 μM thioperamide, respectively. The assay was terminated by rapid filtration through Whatman GF/B filters, presoaked (2 hr) in 0.1% polyethyleneimine, using a Brandell Cell Harvester. The filters were washed (3×3 ml) with ice-cold 50 mM Tris-HCl (pH6.9 at 21±3° C.), transferred into scintillation vials, 5 ml liquid scintillation cocktail was added and after 4 hours the bound radioactivity was determined by counting (4 min) in a Beckman liquid scintillation counter.
as §1, §2, §3, §4
The IC50 is converted to the KI using the Cheng Prusoff equation, […]
KD is the equilibrium dissociation constant for the radioligand determined by saturation experiments. […]

Row | Kb [1] [nM] | Ki [2] [nM] | Ki [3] [nM] | SMILES
1 | 240 | 4170 |  | O=S1(=O)NCCN1CCc1c[nH]cn1 [Example 2, 2-(2-(4-imidazolyl)ethyl)-1,2,5-thiadiazolidine-1,1-dioxide]
2 | 891 | 43.7 | 1660 | C[C@H]1CN(CCc2c[nH]cn2)[S+]([O-])N1 (stereo partly drawn) [Example 6, 2-(4-imidazolyl)ethyl-4(S)-methyl-1,2,5-thiadiazolidine-1-oxide]
3 | 44.7 | 0.513 |  | O=C1C(Cc2ccc(Cl)cc2)NS(=O)(=O)N1CCCCc1c[nH]cn1 (centres unmarked) [Example 7, 2-(4-(4-imidazolyl)butyl)-4-(4-chlorophenyl)methyl-1,2,5-thiadiazolidin-3-one-1,1-dioxide]
4 | > 10000 | 6310 | 2950 | O=S1(=O)N(CCCc2c[nH]cn2)CCN1Cc1ccccc1 [Example 5, 5-benzyl-2-(3-(4-imidazolyl)propyl)-1,2,5-thiadiazolidine-1,1-dioxide]
5 | 123 | 46.8 | 42.7 | O=S1(=O)NC(Cc2ccc(Cl)cc2)CN1CCCCCc1c[nH]cn1 (centres unmarked) [Example 1, 4-(4-chlorophenyl)methyl-2-(5-(4-imidazolyl)pentyl)-1,2,5-thiadiazolidine-1,1-dioxide]
6 | 355 | 2.57 | 13.5 | O=S1(=O)NCCN1CCCc1c[nH]cn1 [Example 3, 2-(3-(4-imidazolyl)propyl)-1,2,5-thiadiazolidine-1,1-dioxide]
7 | 1780 | 115 |  | O=C1CNS(=O)(=O)N1CCCc1c[nH]cn1 [Example 4, 2-(3-(4-imidazolyl)propyl)-1,2,5-thiadiazolidin-3-one-1,1-dioxide]
8 | 2400 | 501 |  | O=C1CNS(=O)(=O)N1CCCCc1c[nH]cn1 [Example 8, 2-(4-(4-imidazolyl)butyl)-1,2,5-thiadiazolidin-3-one-1,1-dioxide]
